Results as given in patent publication US5795885A, “Method of inhibiting profileration of cells by administering an aminosterol compound” (priority 1995, dated 1998).

How the values were obtained:
human NHE1 = assay: internal pH recovery, PS120 fibroblasts transfected with human NHE1 (BCECF-AM); type: cell-based; conditions: 5 μg/ml; acid-preloaded by 40 mM NH4Cl
Experimental: PS120 fibroblasts transfected with rabbit or human NHE1 were grown as described above.

Murine B16 melanoma = assay: growth inhibition in vitro; type: cell-based; conditions: except at very high concentrations
From the text: As set forth in Table 7 below, all malignant tumors evaluated in tissue culture, endothelial cells and vascular smooth muscle cells were sensitive to inhibition. Thus, compound 1436 has application in the control of growth factor dependent proliferation of many types of tissue.

[1] = system: human umbilical venous endothelial cells; assay: LPS/TNF-α-induced neutrophil adherence to human umbilical venous endothelial cells; conditions: 10, 1.0 or 0.1 μg; three different subjects
Experimental: In these experiments, approximately 2×10^5 human umbilical venous cells (passage 2-6) were plated per well. The cells were grown in serum-free media overnight. For induction, either TNF-α (40 ng/ml) was added to endothelial cells for 6 hours prior to adding neutrophils or LPS (100 ng/ml) was added for 4-6 hours. […] After activation of the endothelial cells, approximately 50×10^6 neutrophils were added per well. The plates were gently rocked for 30 minutes at room temperature, followed by removal of the media and washing in serum-free media three times and then photographing of each well. […] A monoclonal Ab to ICAM-1 was a positive control.

[2] = system: bovine pulmonary endothelial cells; assay: growth inhibition of bovine pulmonary endothelial cells in vitro; type: cell-based; conditions: 1 μg/ml
human melanoma 1205Lu = assay: growth of human melanoma 1205Lu in immunocompromised RAG-1 mice; type: in vivo, RAG-1 mice (human tumor)
From the text: As apparent from FIG. 5, melanoma 1205Lu develops aggressively in RAG-1 mice after implantation.

CC(C)[C@@H](CC[C@@H](C)[C@H]1CC[C@H]2[C@@H]3[C@H](O)C[C@H]4C[C@@H](NCCCNCCCCN)CC[C@]4(C)[C@H]3CC[C@]12C)OS(=O)(=O)O [Squalamine, squalamine]
inhibition of human NHE1 (human NHE1): no inhibitory activity
cytostatic activity against B16 in culture (Murine B16 melanoma): minimal cytostatic activity against B16 in culture
inhibition of neutrophil adherence [1]: no inhibition
growth of bovine pulmonary artery endothelial cells (BPE) [2]: inhibited the growth
suppression of melanoma 1205Lu growth (human melanoma 1205Lu; 10, 20, 40 mg/kg/d, after tumors reached about 0.1 ml): found to suppress the growth of melanoma 1205Lu in RAG-1 mice in a dose-dependent fashion
tumor growth after cessation of treatment (human melanoma 1205Lu; in vivo): tumor growth continued at a rate similar to untreated controls
